Source: PMC3139435 (Bioorganic & medicinal chemistry letters, 2011)
Like-named read-outs stand apart in the source and are kept apart here. Values belong to the compound of their own block, whether it stands above or below them.

Key:
[1] = target: T1, human MIF (Homo sapiens, UniProt P14174); test: Mass spectrometric; details: 30 µM each of MIF and compound, one hour at 25 °C
T1 sequence (P14174 2-115 limits assumed): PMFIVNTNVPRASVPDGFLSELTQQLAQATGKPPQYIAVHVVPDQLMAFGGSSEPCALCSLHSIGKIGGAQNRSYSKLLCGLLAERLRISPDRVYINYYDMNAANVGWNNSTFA

[2] = system: MIF-dependent ERK1/2 phosphorylation; details: synovial fibroblasts; for effect on MIF-enhanced ERK phosphorylation (in words): co-administration with MIF, Figure 2
[3] = target: T1, human MIF; details: cited from earlier work

fraction of MIF covalently modified [1]: ca. 3%
SMILES: O=c1c2ccc(F)cc2sn1-c1ccc(Cl)cc1 [1a, 2-(4-chlorophenyl)-6-fluoro-benzo[d]isothiazol-3(2H)-one]

SMILES: N#Cc1ccc(-n2sc3cc(F)ccc3c2=O)cc1 [1c]
effect on MIF-enhanced ERK phosphorylation (in words) [2]: substantial reduction of phosphorylation

SMILES: O=c1c2ccc(O)cc2sn1-c1ccc(Cl)cc1 [1w]
reduction of ERK phosphorylation ([2]; at 100 nM, added with MIF for 30 minutes): 20% | reduction of ERK phosphorylation ([2]; at 1 µM, added with MIF for 30 minutes): 35% | effect on MIF-enhanced ERK phosphorylation (in words) [2]: substantial reduction of phosphorylation

SMILES: Ic1cc(-c2ccccc2)ncn1 [4-IPP, 4-iodo-6-phenylpyrimidine]
fraction of the protein (MIF) covalently modified [3]: ca. 20%

SMILES: COC(=O)CC1CC(c2ccc(O)cc2)=NO1 (stereo not shown) [ISO-1, reference compound]
reduction of ERK phosphorylation ([2]; at 2 µM, racemate): 19%
